Assay results: US20260101901A1, “DELAYING BLOOM IN HORTICULTURAL CROPS USING JASMONIC ACID BIOSYNTHESIS INHIBITORS” (VIRGINIA TECH INTELLECTUAL PROPERTIES INC., priority 2022, published 2026)

Legend:
‘John Boy’ peach trees [1] = assay: Exp. 1 (2021) field trial: DIECA concentrations sprayed at 1000 GDH, bloom time, fruit set and size; assay type: in vivo; conditions: for Heat requirements / Flowering (F50) date / Days from endodormancy release to flowering (F50): sprayed at 1000 GDH, ‘John Boy’ 2021; for Flowering (F50) date: control 06 April; for Days from endodormancy release to flowering (F50): control 69 b
Description: (§1) The field trials were taken place at the Alson H. Smith Jr. Agricultural Research and Extension Center (AREC), Winchester, VA, the United States (39°06′36.0′N 78°16′48.0′W). Experiments were conducted over two growing seasons (2021 and 2022) on 3-year-old ‘John Boy’ and 10-year-old ‘Redhaven’ peach trees; both are grafted on ‘Lovell’ rootstock.
(§2) Chilling and heat accumulation were computed from meteorological data obtained from each orchard. Data loggers (EasyLog, Lascar) were kept in enclosed wooden shelters 1.2 m above the ground and recorded temperatures at 10 min intervals. Chilling requirements were calculated using the chilling hours (CH) model (Weinberger, 1950), in which each hourly temperatures within the range of 0-7.2° C. were registered as 1 CH, and temperatures outside of this range were not considered. Starting at 500 CH, three one-year-old branches, each with at least 10 floral buds, were collected weekly from each treatment. After removal of the terminal buds, the branches were placed in a beaker containing a floral solution prepared with Floralife (Smithers-Oasis Co., Walterboro, SC, USA). The floral solution was replaced weekly and around 1 cm was trimmed from the basal end of each branch to eliminate potential infections. The branches were kept in a growth chamber with conditions favoring bud growth (photoperiod with fluorescent lamps at 135 μmol·m^−2·s^−1 of 16 h at 25° C., a dark period of 8 h at 20° C., and a constant relative humidity of 65%). The endodormancy release and CRs were considered fulfilled when 50% of the buds have reached the calyx green stage after 14 days in the growth chamber.
(§3) After completion of CR, heat requirements were recorded according to the growing degree hours (GDH) model proposed by Richardson et al. (1975). In this model, hourly temperatures less than 4.5° C. registered no GDH; temperatures in the interval of 4.5-25° C. were adjusted by subtracting 4.5° C., and temperatures greater than 25° C. were registered as 20.5 (25-4.5) GDH. Heat requirements (HR) were calculated as the GDH accumulated from the date of endodormancy release (under growth chambers conditions) to the date 50% of buds were in full bloom, F50 (under field conditions).
This trial was conducted on ‘John Boy’ peach trees. Three different concentrations (0.5 mM, 10 mM, and 25 mM) of DIECA (Sigma-Aldrich Co., St Louis, MO, USA) were sprayed on three groups of trees, each group is composed of three adjacent trees. Treatments and control (untreated) trees were arranged in a completely randomized design (CRD). At least one buffer tree was assigned between each treatment to avoid spray drift. Trees were sprayed on 3 Mar. 2021 at 1000 GDH at a spray volume of 0.3 L per tree, using a hand sprayer. Regulaid (250 ppm), a non-ionic surfactant from Kalo Inc. (Overland Park, KS, United States) was mixed with all treatments and experiments at the rate of 250 ppm.
(§4) At the pink-bud stage, three-four branches from each treated and untreated (control) tree were randomly selected across the tree and flagged using colored ribbons. The number of buds on selected branches (at least 80 bud/tree) was used as the initial bud count. The progression of flower opening was recorded by periodically counting the number of open blossoms in each experiment. The number of open flowers (anthers visible) was counted every 1-3 days until all buds reached the full bloom stage (50% of flowers are fully open). The blooming rate at each time point was calculated as the ratio of open blossoms to the initial bud number per tree, and the flowering date (F50) for each treatment was determined when the blooming rate reached 50%. The numbers of fruit on the marked branches were counted 2 and 4 and 8 weeks after full bloom. Percent fruit set was calculated as the number of fruits divided by the number of flowers times 100.

‘Redhaven’ peach trees [2] = assay: Exp. 2 (2021) field trial: DIECA application timing, bloom time; assay type: in vivo; conditions: DIECA 10 mM applied at 1000 GDH
Description: as §1
(§5) Chilling and heat accumulation were computed from meteorological data obtained from each orchard. Data loggers (EasyLog, Lascar) were kept in enclosed wooden shelters 1.2 m above the ground and recorded temperatures at 10 min intervals. Chilling requirements were calculated using the chilling hours (CH) model (Weinberger, 1950), in which each hourly temperatures within the range of 0-7.2° C. were registered as 1 CH, and temperatures outside of this range were not considered. Starting at 500 CH, three one-year-old branches, each with at least 10 floral buds, were collected weekly from each treatment. […]
(§6) After completion of CR, heat requirements were recorded according to the growing degree hours (GDH) model proposed by Richardson et al. (1975). […] Heat requirements (HR) were calculated as the GDH accumulated from the date of endodormancy release (under growth chambers conditions) to the date 50% of buds were in full bloom, F50 (under field conditions). […]

‘Redhaven’ peach trees [3] = assay: Exp. 3 (2022) field trial: DIECA concentrations sprayed at 500 GDH, bloom time and fruit set; assay type: in vivo; conditions: for Heat requirements / Flowering (F50) date / Days from endodormancy release to flowering (F50): sprayed at 500 GDH, ‘Redhaven’ 2022; for Flowering (F50) date: control 01 April; for Days from endodormancy release to flowering (F50): control 72 c
Description: as §1, §2, §3
In this trial, we used peach ‘Redhaven’ trees to examine the effects of three different concentrations (12.5, 25 and 50 mM) of DIECA on blooming time. Three adjacent trees were assigned for each treatment. All treated and untreated (control) trees were distributed in the orchard according to the CRD experimental design. DIECA treatments were applied at 500 GDH at a spray volume of 1.8 L per tree, using a high-pressure tree sprayer.
as §4

‘John Boy’ peach trees [4] = assay: Exp. 4 (2022) field trial: late DIECA application at 2000 GDH, bloom time and fruit set; assay type: in vivo; conditions: DIECA 50 mM at 2000 GDH
Description: as §1, §5, §6

‘John Boy’ peach trees [5] = assay: Exp. 1 (2021) field trial: DIECA concentrations sprayed at 1000 GDH, bloom time, fruit set and size; assay type: in vivo; set-up: Delay of the flowering date (F50) vs control: dose or concentration left out as unconfirmed
[6] = test system: ginseng, wheat and tea plant (Camellia sinensis); conditions: DIECA application; cited from earlier work
‘Redhaven’ peach = assay type: in vivo; conditions: antipyrine 50 mM, propyl gallate 15 mM, four weekly applications from swollen bud stage
Description: (§7) In this study, we investigated the influence of propyl gallate and Antipyrine on the flowering time of ‘Redhaven’ and ‘Sunhigh’ cultivars. Three adjacent trees were randomly chosen, each as a replicate, and subjected to treatments: propyl gallate (15 mM), antipyrine (50 mM), and an untreated control. Four applications of each treatment were administered weekly, commencing at the swollen bud stage, which are concurrent at 2059, 2167, 2356, and 3128 DGH, respectively, employing a hand sprayer with the volume of 2.5 L per tree. Regulaid, a non-ionic surfactant from Kalo Inc. (Overland Park, KS, United States) was mixed with all treatments and experiments at the rate of 250 ppm.
as §4, with “The number of buds on selected branches (at least 80 bud/tree) was used as the initial bud count.” left out, “The numbers of fruit on the marked branches were counted 2 and 4 and 8 weeks after full bloom. Percent fruit set was calculated as the number of fruits divided by the number of flowers times 100.” left out

‘Sunhigh’ peach = assay: Exp. 5 (2023) field trial: propyl gallate and antipyrine, flowering time; assay type: in vivo; conditions: antipyrine 50 mM, propyl gallate 15 mM, four weekly applications from swollen bud stage
Description: as §7
as §4, with “The number of buds on selected branches (at least 80 bud/tree) was used as the initial bud count.” left out, “The numbers of fruit on the marked branches were counted 2 and 4 and 8 weeks after full bloom. Percent fruit set was calculated as the number of fruits divided by the number of flowers times 100.” left out

[7] = test system: peach and other stone fruits; conditions: cited from earlier work

For `CCN(CC)C(=S)[S-].[Na+]` [DIECA, sodium diethyldithiocarbamate], the Heat requirements (‘John Boy’ peach trees [1]; DIECA 0.5 mM) was 5373 GDH, the “Flowering (F50) date” value (‘John Boy’ peach trees [1]; DIECA 0.5 mM) was 06 April and the “Days from endodormancy release to flowering (F50)” value (“Days … to flowering (F50)” below) (‘John Boy’ peach trees [1]; DIECA 0.5 mM) was 69 b days. For the same molecule, the Heat requirements (‘John Boy’ peach trees [1]; DIECA 10 mM) was 5539 GDH, the “Flowering (F50) date” value (‘John Boy’ peach trees [1]; DIECA 10 mM) was 07 April and the “Days … to flowering (F50)” value (‘John Boy’ peach trees [1]; DIECA 10 mM) was 70 b days. The “Delay in the blooming” value (‘John Boy’ peach trees [1]; DIECA 25 mM (highest concentration), 1000 GDH, ‘John Boy’) was “significant delay in the blooming”, the Heat requirements (‘John Boy’ peach trees [1]; DIECA 25 mM) was 6048 GDH and the “Flowering (F50) date” value (‘John Boy’ peach trees [1]; DIECA 25 mM) was 08 April. For the same molecule, the “Days … to flowering (F50)” value (‘John Boy’ peach trees [1]; DIECA 25 mM) was 72 a days, the “Bloom progression compared to the control” value (‘Redhaven’ peach trees [2]) was “slightly delayed bloom progression” and the Bloom-delaying effect (‘Redhaven’ peach trees [2]; 2000 GDH or 1000+2000 GDH) was “None of the DIECA application timings showed a significant bloom-delaying effect”. For the same molecule, the Heat requirements (‘Redhaven’ peach trees [3]; DIECA 12.5 mM) was 6090 GDH, the “Flowering (F50) date” value (‘Redhaven’ peach trees [3]; DIECA 12.5 mM) was 04 April and the “Days … to flowering (F50)” value (‘Redhaven’ peach trees [3]; DIECA 12.5 mM) was 75 bc days. For the same molecule, the “Delay in bloom time compared to the untreated control” value (‘Redhaven’ peach trees [3]; DIECA 25 mM at 500 GDH) was 3 days, the Heat requirements (‘Redhaven’ peach trees [3]; DIECA 25 mM) was 6090 GDH and the “Flowering (F50) date” value (‘Redhaven’ peach trees [3]; DIECA 25 mM) was 04 April. The “Days … to flowering (F50)” value (‘Redhaven’ peach trees [3]; DIECA 25 mM) was 75 b days, the “Delay in bloom time compared to the untreated control” value (‘Redhaven’ peach trees [3]; DIECA 50 mM at 500 GDH) was 6 days and the Heat requirements (‘Redhaven’ peach trees [3]; DIECA 50 mM) was 6478 GDH. For the same molecule, the “Flowering (F50) date” value (‘Redhaven’ peach trees [3]; DIECA 50 mM) was 07 April, the “Days … to flowering (F50)” value (‘Redhaven’ peach trees [3]; DIECA 50 mM) was 78 a days and the Bloom delay (‘Redhaven’ peach trees [3]; all DIECA applications (12.5, 25, 50 mM) at 500 GDH) was “remarkable bloom delay”. For the same molecule, the “Bloom delay in peach” value (‘Redhaven’ peach trees [3]; high DIECA concentrations (>25 mM) at early ecodormancy (~500 GDH)) was 3 to 6 days, the “Flowering time vs control” value (‘John Boy’ peach trees [4]) was “No significant differences” and the “Delay of the flowering date (F50) vs control” value (‘John Boy’ peach trees [5]; DIECA, 1000 GDH, ‘John Boy’) was “three”. The JA levels [6] was “substantially reduce JA levels”.

For `CCN(CC)C(=S)[S][Na]` [DIECA, sodium diethyldithiocarbamate], the “Fruit size vs control” value (‘John Boy’ peach trees [1]; DIECA 0.5, 10, 25 mM, 6 WAFB) was “No significant differences”, the “Fruit set (%) vs control” value (‘Redhaven’ peach trees [3]; DIECA 12.5, 25, 50 mM at 500 GDH, 2 and 4 WAFB) was “did not show significant differences” and the “Fruit set (%) vs control” value (‘John Boy’ peach trees [4]; 2 and 4 WAFB) was “no significant differences”. The “Fruit set (%) vs control” value (‘John Boy’ peach trees [5]; DIECA 0.5, 10, 25 mM, 3 and 6 WAFB) was “No significant differences”.

For `CCCOC(=O)c1cc(O)c(O)c(O)c1` [propyl gallate, n-propyl gallate], the “Bloom delay compared to the control” value (‘Redhaven’ peach) was “no significant impact” and the “Bloom delay compared to the control” value (‘Sunhigh’ peach) was “single”.

With `Cc1cc(=O)n(-c2ccccc2)n1C` [Antipyrine, antipyrine] the “Bloom delay compared to the control” value (‘Redhaven’ peach) was “two” and the “Bloom delay compared to the control” value (‘Sunhigh’ peach) was “four”.

For `O=P(O)(O)CCCl` [ET, 2-chloroethylphosphonic acid], the Detrimental effects ([7]; high concentration application) is listed as “gummosis, abortion of floral buds and dieback of the branches” and the Bloom delay ([7]; high concentration, applied in the fall) is listed as “more than two weeks”.
